Source: patent US4024277A, “Phosphoro-aminosulfenyl derivatives of benzofuran carbamates” (priority 1975, dated 1977)

Experiments:
plum curculio [1] = experiment: Initial insecticidal activity, plum curculio; assay type: in vivo, Conotrachelus nenuphar (Herbst); conditions: Conotrachelus nenuphar, 48-hour exposure, read-out: % Kill, Plum Curculio
Excerpt: (§1) a. Initial Insecticidal Activity
(§2) In this test, a candidate insecticide, in solution, is applied to either infested or uninfested plants or containers by spraying or dipping. (The preferred test procedure varies with insect species. The dipping method is better than the spraying method, and vice versa, for certain species of insects. Also some species are better adapted to the test by infesting after the chemical treatment rather than before.) Once the tests have been established, a 48-hour exposure period is observed before reading the tests. Insect species included in these tests are Mexican bean beetle (Epilachna varivestis Mulsant), pea aphid [Acyrthosiphon pisum (Harris)], southern armyworm [Spodoptera eridania (Cramer)], twospotted spider mite (Tetranychus urticae Koch), large milkweed bug [Oncopeltus fasciatus (Dallas)], plum curculio [Conotrachelus nenuphar (Herbst)], confused flour beetle (Tribolium confusum Jacquelin duVal) and granary weevil [Sitophilus granarius (Linnaeus)]. Test results are set forth in Table I. A control sample, comprising the solution without the candidate insecticide, is also included.

granary weevil [2] = experiment: Initial insecticidal activity, granary weevil; assay type: in vivo, Sitophilus granarius (Linnaeus); conditions: Sitophilus granarius, 48-hour exposure, read-out: % Kill, Granary Weevil
Excerpt: as §1, §2

Mexican bean beetle = experiment: Initial insecticidal activity, Mexican bean beetle; assay type: in vivo, Epilachna varivestis Mulsant; conditions: Epilachna varivestis, 48-hour exposure, read-out: % Kill, Mexican Bean Beetle
Excerpt: as §1, §2

large milkweed bug = experiment: Seven-day residual insecticidal activity, milkweed bug; assay type: in vivo, Oncopeltus fasciatus (Dallas); conditions: Oncopeltus fasciatus, 48-hour exposure, read-out: % Kill, Milkweed Bug
Excerpt: (§3) b. Seven-Day Residual Insecticidal Activity
(§4) In this test, a candidate insecticide, in solution, is applied to uninfested plants or containers by dipping or spraying. A seven-day holding period is necessary before infestation. A 48-hour exposure period is observed before evaluation of the tests. The insect species used in this type of test are the same as those listed under initial activity.

plum curculio [3] = experiment: Seven-day residual insecticidal activity, plum curculio; assay type: in vivo, Conotrachelus nenuphar (Herbst); conditions: Conotrachelus nenuphar, 48-hour exposure, read-out: % Kill, Plum Curculio
Excerpt: as §3, §4

granary weevil [4] = experiment: Seven-day residual insecticidal activity, granary weevil; assay type: in vivo, Sitophilus granarius (Linnaeus); conditions: Sitophilus granarius, 48-hour exposure, read-out: % Kill, Granary Weevil
Excerpt: as §3, §4

pea aphid = experiment: Seven-day residual insecticidal activity, pea aphid; assay type: in vivo, Acyrthosiphon pisum (Harris); conditions: Acyrthosiphon pisum, 48-hour exposure, read-out: % Kill, Pea Aphid
Excerpt: as §3, §4

southern armyworm = experiment: Systemic insecticidal activity (soil/water), southern armyworm; assay type: in vivo, Spodoptera eridania (Cramer); conditions: Spodoptera eridania, 48-hour exposure, read-out: % Kill, Southern Armyworm
Procedure: c. Systemic Insecticidal Acitivity (Soil/Water)
In this test, a candidate insecticide, in solution, is added to the soil of either uninfested pinto bean seedlings (Phaseolus vulgaris) or uninfested broad bean seedlings (Vicia faba var. Windsor). The plant species used depend on the insect species in the test. Usually, a 72-hour translocation period before infestation is required, followed by a 48-hour exposure period, before evaluation of the tests. The insect species used in the systemic tests are Mexican bean beetle, southern armyworm, pea aphid, and twospotted spider mite.

twospotted spider mite = experiment: Ovicidal activity against the twospotted spider mite; assay type: in vivo, Tetranychus urticae Koch; conditions: Tetranychus urticae, eggs, 7 to 10 days, read-out: % Kill (ovicidal)
Procedure: d. Ovicidal Activity Against the Twospotted Spider Mite
In this test, Pinto bean seedlings are infested with female twospotted spider mites; about 3-4 hours are allowed for egg deposition. Plants are then dipped in TEPP (tetraethylpyrophosphate-commercial emulsifiable concentrate (EC)) solution containing 936 ppm of active ingredient. TEPP kills motile forms on the leaf and promptly degrades without effecting the egg stage. Two to three hours after TEPP treatment the plants are again dipped -- this time into a candidate insecticide solution. The test plants are maintained for 7 to 10 days. Termination of exposure is determined by the time required to attain complete hatch in the untreated check.

house flies = experiment: Level I immersion test, house flies; assay type: in vivo, Musca domestica Linnaeus; conditions: HF, 5 mg/milliliter
Procedure: e. Insecticidal Activity Against House Flies and German Cockroaches
Compounds of this invention were tested in a Level I test at 5 mg. of active compounds/milliliter of a solution of 40% acetone -- 60% water.
In this test a group of ten house flies (Musca domestica Linnaeus) were completely immersed in 25 ml. of the insecticidal test solution. After 10 seconds of immersion, the test solution is removed. The house flies are then transferred to holding cages lines with paper toweling. In the case of the house flies, the knockdown counts were recorded 10 minutes after termination of the immersion. The percent kill was recorded after 18-24 hours.

[5] = Mammalian toxicity, 14-day LD50 in rats; conditions: rat, in vivo, Wistar derived albino rats, method of Miller and Tainter
Excerpt: The compounds of this invention are characterized by advantageous mammalian toxicity values when compared with values for related compounds. This is shown by comparative values obtained with Wistar derived albino rats in 14-day tests. The animals were fed, housed and watered in accordance with standard laboratory procedures. The 14-day LD50 determination was estimated in accord with the method of Miller and Tainter (Experimental Biology and Medicine, 57, pp. 261-264, 1944).

Compound `CCOP(=O)(OCC)N(C)SN(C)C(=O)Oc1cccc2c1OC(C)(C)C2` [Example 1(c), 2,3-dihydro-2,2-dimethyl-7-benzofuranyl [(N-diethoxyphosphinyl) (N-methyl)-aminosulfenyl][methyl]carbamate] has a mortality at 39 ppm (plum curculio [1]; 39 ppm) of 0%, a mortality at 156 ppm (plum curculio [1]; 156 ppm) of 15% and a mortality at 1250 ppm (plum curculio [1]; 1250 ppm) of 100%. It also gave a mortality at 39 ppm (granary weevil [2]; 39 ppm) of 30%, a mortality at 156 ppm (granary weevil [2]; 156 ppm) of 100% and a mortality at 1250 ppm (granary weevil [2]; 1250 ppm) of 100%. For the same compound, the mortality at 39 ppm (Mexican bean beetle; 39 ppm) was 100%, the mortality at 156 ppm (Mexican bean beetle; 156 ppm) was 100% and the mortality at 1250 ppm (Mexican bean beetle; 1250 ppm) was 100%. For the same compound, the mortality at 39 ppm (large milkweed bug; 39 ppm) was 55%, the mortality at 156 ppm (large milkweed bug; 156 ppm) was 100% and the mortality at 1250 ppm (large milkweed bug; 1250 ppm) was 100%. The mortality at 39 ppm (plum curculio [3]; 39 ppm) was 0%, the mortality at 156 ppm (plum curculio [3]; 156 ppm) was 22% and the mortality at 1250 ppm (plum curculio [3]; 1250 ppm) was 85%. It also gave a mortality at 39 ppm (granary weevil [4]; 39 ppm) of 8%, a mortality at 156 ppm (granary weevil [4]; 156 ppm) of 97% and a mortality at 1250 ppm (granary weevil [4]; 1250 ppm) of 100%. It also gave a mortality at 39 ppm (pea aphid; 39 ppm) of 0%, a mortality at 156 ppm (pea aphid; 156 ppm) of 0% and a mortality at 1250 ppm (pea aphid; 1250 ppm) of 100%. It also gave a mortality at 39 ppm (southern armyworm; 39 ppm) of 0%, a mortality at 156 ppm (southern armyworm; 156 ppm) of 92% and a mortality at 39 ppm (twospotted spider mite; 39 ppm) of 0%. For the same compound, the mortality at 156 ppm (twospotted spider mite; 156 ppm) was 0%, the mortality at 1250 ppm (twospotted spider mite; 1250 ppm) was 72% and the “% Knockdown” value (house flies; 10 minutes after immersion) was 100%. For the same compound, the mortality at 5000 µg/mL (house flies; Musca domestica, after 18-24 hours, read-out: % Kill) was 100% and the LD50 at 336 h [5] was 146 mg/kg.
